From publication PMC4775916 (Antimicrobial Agents and Chemotherapy, 2016)
Several values for one entry are separate records, joined by “and”; a condition that tells them apart may be missing. Equal entries are not always repeated. Where two headings read alike, the source gives them in different places.

What was measured:
VIM-5 [1] = test system: VIM-5; parameters: method as in Garcar et al. (6); conditions: previous studies ref Garcar et al. (6), cited from earlier work
VIM-1 [2] = molecular target: T1, VIM-1 (Pseudomonas aeruginosa, UniProt A0A0F7KYQ8); conditions: previous studies ref Franceschini et al. (4), cited from earlier work; for Km: read-out: Km VIM-1 (previous study)
T1 construct: The N- and C- terminal residues of the mature enzymes are labelled 26; made in house

VIM-5 [3] = molecular target: T2, VIM-5 (Pseudomonas aeruginosa, UniProt A0A0F7KYQ8, A128K/E202A/H201L/K257T/S205R); assay: Steady-state kinetics of β-lactam substrate hydrolysis; type: biochemical; conditions: for kcat VIM-5 / Km: 50 mM HEPES pH 7.2, apparent for ampicillin and ceftazidime; for Km: read-out: Mean Km ± SD VIM-5
T2 construct: His6 with HRV3C cleavage site (pET-28a) (N, cleaved yes); made in house; host or cells: E. coli BL21(DE3)
Procedure: (§1) The hydrolysis of a representative panel of β-lactam substrates was monitored at their respective absorbance wavelengths. The wavelengths and extinction coefficients used were previously described ([34]). The assays were carried out using 50 mM HEPES buffer (pH 7.2) supplemented with 1 μg/ml bovine serum albumin (BSA), 1 μM ZnSO4, and 0.01% Triton X-100. In the case of VIM-1, C-terminally His6-tagged VIM-1 was used for kinetic analyses. Note that no differences were observed between the activities of untagged VIM-1 and C-terminally His6-tagged VIM-1 for the selected antibiotics (data not shown). The initial rates were obtained from the changes in absorbance at various substrate concentrations. Steady-state kinetic parameters (Km and kcat) were determined by fitting the initial velocity data to the Michaelis-Menten equation using GraphPad Prism 5.01 software (see Table S4 in the supplemental material).

VIM-1 [4] = molecular target: T1, VIM-1; assay: as above; type: biochemical
Procedure: as §1

VIM-38 = molecular target: T3, VIM-38 (Pseudomonas aeruginosa, UniProt A0A0F7KYQ8, A128K/A265V/E202A/H201L/K257T/S205R); assay: as above; type: biochemical; conditions: 50 mM HEPES pH 7.2, apparent for ampicillin and ceftazidime; for Km: read-out: Mean Km ± SD VIM-38
T3 construct: The N- and C- terminal residues of the mature enzymes are labelled 26; His6 with HRV3C cleavage site (pET-28a) (N, cleaved yes); made in house; host or cells: E. coli BL21(DE3)
Procedure: as §1

VIM-2 [5] = molecular target: T4, VIM-2 (Escherichia coli, UniProt Q5U7L7); type: biochemical
T4 construct: His6 (N, cleaved yes); made in house
Procedure: as §1

VIM-2 [6] = test system: VIM-2; parameters: method as in Poirel et al. (5); conditions: previous studies ref Poirel et al. (5), cited from earlier work
[7] = C-terminally His6-tagged VIM-1; 50 mM HEPES pH 7.2; apparent for ampicillin and ceftazidime
[8] = 50 mM HEPES pH 7.2; apparent for ampicillin and ceftazidime

For `CC1(C)S[C@@H]2[C@H](NC(=O)[C@H](N)c3ccccc3)C(=O)N2[C@H]1C(=O)O` [Ampicillin], the “kcat VIM-5 (previous study)” value (VIM-5 [1]) is listed as 14 s⁻¹, the “kcat VIM-1 (previous study)” value (VIM-1 [2]) is listed as 37 s⁻¹ and the Km (VIM-1 [2]) is listed as 917 µM. For the same molecule, the “kcat VIM-5” value (VIM-5 [3]) was 230 s⁻¹, the Km (VIM-5 [3]) was > 1000 µM and the Km (VIM-5 [3]; listed as ampicillin) was > 300 µM. For the same molecule, the “kcat VIM-1” value (VIM-1 [4]; [7]) was 122 s⁻¹ and 120 s⁻¹, the Km (VIM-1 [4]; C-terminally His6-tagged VIM-1; 50 mM HEPES pH 7.2; apparent for ampicillin and ceftazidime; read-out: Mean Km ± SD VIM-1) was > 1000 µM and the Km (VIM-1 [4]; read-out: Mean Km ± SD VIM-1; C-terminally His6-tagged VIM-1; 50 mM HEPES pH 7.2; apparent for ampicillin and ceftazidime) was > 300 µM. The “kcat VIM-38” value (VIM-38) was 170 s⁻¹, the Km (VIM-38) was 380 ± 80 µM and the Km (VIM-38; listed as ampicillin) was > 300 µM. For the same molecule, the “kcat VIM-2” value (VIM-2 [5]; [8]) was 180 s⁻¹, the Km (VIM-2 [5]; 50 mM HEPES pH 7.2; apparent for ampicillin and ceftazidime; read-out: Mean Km ± SD VIM-2) was > 500 µM and the Km (VIM-2 [5]; read-out: Mean Km ± SD VIM-2; 50 mM HEPES pH 7.2; apparent for ampicillin and ceftazidime) was > 300 µM.

For `CC(C)(O/N=C(\C(=O)N[C@@H]1C(=O)N2C(C(=O)[O-])=C(C[n+]3ccccc3)CS[C@H]12)c1csc(N)n1)C(=O)O` [Ceftazidime], the “kcat VIM-5 (previous study)” value (VIM-5 [1]) is listed as 0.2 s⁻¹, the Km (VIM-5 [1]; read-out: Km VIM-5 (previous study)) is listed as 149 µM and the “kcat VIM-1 (previous study)” value (VIM-1 [2]) is listed as 60 s⁻¹. For the same molecule, the Km (VIM-1 [2]) was 794 µM, the “kcat VIM-5” value (VIM-5 [3]) was 4 s⁻¹ and the Km (VIM-5 [3]) was 340 ± 80 µM. For the same molecule, the “fold-higher hydrolysis efficiency by VIM-5 than previously reported” value (VIM-5 [3]; this study versus previously reported ([26])) was 10 fold, the “kcat VIM-1” value (VIM-1 [4]; [7]) was 3 s⁻¹ and the “kcat VIM-38” value (VIM-38) was 4 s⁻¹. For the same molecule, the Km (VIM-38) was 430 ± 140 µM, the “kcat VIM-2 (previous study)” value (VIM-2 [6]) was 89 s⁻¹ and the Km (VIM-2 [6]; read-out: Km VIM-2 (previous study)) was 98 µM. For the same molecule, the “kcat VIM-2” value (VIM-2 [5]; [8]) was 2 s⁻¹.

In the case of `CC(=O)OCC1=C(C(=O)O)N2C(=O)[C@@H](NC(=O)Cc3cccs3)[C@H]2SC1` [Cephalothin], the “kcat VIM-5” value (VIM-5 [3]) is reported as 200 s⁻¹, the Km (VIM-5 [3]) is reported as 100 ± 8 µM and the “kcat VIM-38” value (VIM-38) is reported as 120 s⁻¹. For the same molecule, the Km (VIM-38) was 60 ± 8 µM.
